The values that follow come from patent US6093720A, “Trans apovincaminic acid ester derivatives” (Richter Gedeon Vegyeszeti GmbH, priority 1995, dated 2000).

Assay [1] has as its system NADPH-Induced Lipid Peroxidation in Brain Microsomes. Description: NADPH-induced (enzymatic) lipid peroxidation in brain microsomes (AEI). It is filed as biochemical, rat (male Hannover-Wistar). The note with it: for IC50: NADPH-induced lipid peroxidation, rat brain microsomes, 37° C., 20 minutes, pH 6.8; for inhibition of NADPH-induced lipid peroxidation relative to silymarin (times as strongly): compared with silymarin; for antioxidant effect in NADPH-induced lipid peroxidation, in words: comparison with reference compounds.
Method: Effect on the NADPH-Induced Lipid Peroxidation in Brain Microsomes
Male Hannover-Wistar rats with a body weight of 150-250 g were used for the preparation of microsomes. After decapitation, the whole brain was removed and homogenized in a 10-fold volume of ice-cold 0.25 M saccharose solution. The homogenate was centrifuged in a Hitachi CR 26H equipment at 15000 g at 4° C. for 10 minutes, then the supernatant was collected and centrifuged in a Hitachi SCP 85H apparatus at 78000 g at 4° C. for 60 minutes. After suspending the precipitate in 0.15 M KCl solution, the protein content of the obtained solution was determined and then adjusted to 10 mg/ml concentration. The microsome thus obtained was frozen in a dry ice-acetone mixture and stored at -70° C. until use. The components of the incubation mixture were: 50 mM TRIS-HCl (pH 6.8), 0.2 mM FeCl3, 1 mM KH2 PO4, 0.5 mM ADP, 0.2 mg of microsomes as well as the compound to be tested. The incubation was carried out with a final volume of 1 ml and with an incubation time of 20 minutes at a temperature of 37° C. The lipid peroxidation was induced by adding 0.4 mM NADPH.
The formation of malondialdehyde was determined by using thiobarbituric acid. After stopping the reaction, 1 ml of 1% thiobarbituric acid solution each was weighed to the samples, which were then placed in a water bath of about 100° C. for 10 minutes. Subsequently, the samples were centrifuged at 2000 g in a Janetzki K70 apparatus at 4° C. for 10 minutes. The absorbance values of the colored supernatant were measured at 535 nm in a Hitachi 150-20 spectrophotometer. Malondialdehyde bis(diethylacetal) was used as reference compound.

The subject of assay [2] is Fe^2+ -Induced Lipid Peroxidation in Brain Homogenate. The experiment in a line: Fe^2+-induced (non-enzymatic) lipid peroxidation in brain homogenate (ANI). It is filed as biochemical, rat (Hannover-Wistar). The note with it: for IC50: Fe^2+-induced lipid peroxidation, rat brain homogenate, 37° C., 20 minutes, pH 7.4; for antioxidant activity in Fe^2+-induced lipid peroxidation, in words: comparison with idebenone, DL-α-tocopherol or silymarin.
Method: Effect on the Fe^2+ -Induced Lipid Peroxidation in Brain Homogenate
After decapitating Hannover-Wistar rats weighing 150-220 g each, the whole brain was homogenized in 9 volumes of ice-cold Krebs-Ringer's buffer containing 15 mM HEPES, (4-(2-hydroxyethyl)-1-piperazinylethanesulfonic acid) (pH 7.4), 140 mM NaCl7 3.6 mM KCl, 1.5 mM CaCl2, 0.7 mM MgCl2, 1.4 mM KH2 PO4 and 10 glucose. Then the protein content of the solution was determined and adjusted to 10 mg/ml concentration.
After adding the inhibitory agent to be tested in a volume of 5 μl to 200 μl of the homogenate, the incubation mixture was incubated at 37° C. for 20 minutes. The Fe^2+ -induced lipid peroxidation was accomplished by adding 5 μl of 8 mM Fe2 (NH4)2 (SO4)2 solution. After passing of the incubation time, the reaction was stopped by adding 1 ml of a stopping solution containing 0.8 M HCl and 12.5% trichloroacetic acid, then the samples were centrifuged at 2000 g in a Janetzki K70 apparatus at 4° C. for 10 minutes.
To a 0.5 ml portion of the supernatant, 1 ml of 1% thiobarbituric acid solution was added, then the samples were placed in a water bath of 100° C. for 20 minutes. The color intensity developed was determined at 535 nm with a Hitachi 150-20 spectrophotometer by using malondialdehyde bis(diethylacetal) as reference compound.
ANI: non-enzymatically (Fe^2+) induced lipid peroxidation test

Assay [3] in a line: Antiischemic effect on bilateral (carotid) artery ligation model, mortality. Format: in vivo, mice. The note with it: for mortality at 2 mg/kg / ED50: Mus musculus, ip; for mortality at 2 mg/kg: 24 h, 30 minutes before 5-minute bilateral carotid ligation, control mortality 70%; for mortality at 2 mg/kg / antiischemic activity, in words: 2 mg/kg i.p.; for ED50: dose diminishing the mortality by 50% in comparison to the untreated control group; for antiischemic activity, in words: bilateral artery ligation, mice. The procedure: 1. Antiischemic Effect (On Bilateral Artery Ligation Model)
N. Himori et al.: Cerebral ischemia model with conscious mice involvement of NMDA receptor activation and derangement of learning and memory ability [J. Pharmacol. Meth. 23, 311-327 (1990)].
Carotid arteries of mice (weighing 30 to 32 g each) were exposed bilaterally under anaesthesia by 450 mg/kg of intraperitoneal (i.p.) chloral hydrate. The sympathetic and vagal nerves were separated and a loose ligation was bilaterally placed below the carotid arteries. Both ends of the ligation were led out on the back, behind the ears. Next day, in conscious state both ends of the ligation were pulled resulting in the stopping of blood supply through the carotid arteries. This was maintained for 5 minutes, then released to provide the reperfusion. The number of animals died during the 5-minute period and the following 24 hours were registered. The calculation of significance was performed by the chi^2 test. The pre-treatment with the compound was carried out intraperitoneally (i.p.) 30 minutes before the ligation.
The transient dramatic decrease in the cerebral blood supply, then the starting of reperfusion after stopping the ligation leads to the formation of extremely toxic oxygen free radicals (superoxide radical, hydrogen peroxide). […] [ED50 is the dose (as mg/kg) diminishing the mortality by 50% in comparison to the untreated is control group].

A short description of assay [4]: Diazepam-induced anterograde amnesia (passive avoidance). Format: in vivo, NMRI mice. The note with it: for Inhibition of the diazepam-induced amnesia %: 1 hour before learning, diazepam 3 mg/kg i.p. The text has this:
2. Diazepam-Induced Anterograde Amnesia C. L. Broekkamp et al.: The comparative effects of benzodiazepines, progabide and PK 9084 on acquisition of passive avoidance in mice [Psychopharmacology (Berlin) 83, 122-125 (1984)]. The memory test was accomplished on NMRI mice weighing 25 to 28 g each by using the passive avoidance, a method based on the genetically determined nyctophilic behavior of rodents. During the learning period, the pre-selected animals (mice entering the dark space from the illuminated space within 30 seconds) were placed in an illuminated space. After entering the dark space, the animal received an electric shock (1 mA for […]) onto its planta within 30 seconds, then the time until entry to the dark space (latency period) was registered. After 24 hours, the animals were placed again in the illuminated space and the time until crossing over to the dark space (retention time=T with a time limit of 300 seconds) was measured. For inducing an anterograde amnesia, the animals were treated intraperitoneally with 3 mg/kg of diazepam 30 minutes before learning. The compounds were administered orally in 0.1 or 10 mg/kg doses, respectively 1 hour before learning. [formula]

“And” between values parts separate entries of the source, which are not always exact repeats. Equal values may be shown once. Where a name gives a salt, the structure may show the parent alone.

Broadly, the IC50 is the point on the concentration scale where inhibition reaches its midpoint. A lower IC50 goes with higher potency. Broadly, the mortality is the percentage killed. With `CC[C@@]12C=C(C(=O)OCCOC(=O)c3cc(OC)c(OC)c(OC)c3)n3c4c(c5ccccc53)CCN(CCC1)[C@@H]42` [Compound 1011005, (-)-trans apovincaminic acid 2-(3,4,5-trimethoxybenzoyloxy)-ethyl ester(3β,16α)hydrochloride], in assay [1], the midpoint of inhibition, the IC50, lay at 10.3 µM and the “inhibition of NADPH-induced lipid peroxidation relative to silymarin (times as strongly)” value was “about 20 times”. In assay [2], this compound showed an IC50 of 11.9 µM. This compound registered a mortality at 2 mg/kg in assay [3] of 70%.

As a reminder, the ED50 is the midpoint of the dose-response relation. A higher ED50 goes with a need for a large dose. Compound `Cc1c(C)c2c(c(C)c1O)CCC(C)(CCCC(C)CCCC(C)CCCC(C)C)O2` (racemic) [Vitamin E, 2,5,7,8-tetramethyl-2-(4',8',12'-trimethyltridecyl)-6-chromanol, reference compound] gave an IC50 in assay [1] of 406 µM. In assay [2], this compound returned an IC50 of 12.1 µM. For the same compound, in assay [3], the mortality at 2 mg/kg is 70%; the 50% effect level (ED50) was put at a dose of 17.8 mg/kg; the “antiischemic activity, in words” value was “less active in the same dose”.

On to `CC[C@]12C=C(C(=O)OCCOC(=O)c3cc(OC)c(OC)c(OC)c3)n3c4c(c5ccccc53)CCN(CCC1)[C@H]42` [Compound 1011047, (+)-trans apovincaminic acid 2-(3,4,5-trimethoxybenzoyloxy)ethyl ester(3α,16β)], for which, in assay [1], the IC50 came to 5.9 µM and the “antioxidant effect in NADPH-induced lipid peroxidation, in words” value (shortened to “antioxidant effect”) is recorded as “comparable to that of idebenone”. In assay [2], the IC50 turned out to be 16.1 µM and the “antioxidant activity in Fe^2+-induced lipid peroxidation, in words” value (“antioxidant activity” below) is listed as “more strongly than idebenone”. In assay [3], this compound displayed a mortality at 2 mg/kg of 50%.

On to `CCC(=O)OCCOC(=O)C1=C[C@]2(CC)CCCN3CCc4c(n1c1ccccc41)[C@H]32` [Compound 1010962, (-)-trans apovincaminic acid 2-(propionyloxyethyl)ester(3β,16α)hydrochloride], for which the IC50 in assay [1] was 7.5 µM and < 10 µM; in assay [2] it was 5.7 µM and < 10 µM. Further, the “inhibition of NADPH-induced lipid peroxidation relative to silymarin (times as strongly)” value in assay [1] is “about 20 times”. The “antioxidant activity” value in assay [2] was “about twice as active as idebenone or DL-α-tocopherol”. The compound also registered a mortality at 2 mg/kg in assay [3] of 40%. In addition, the results for the “Inhibition of the diazepam-induced amnesia %” value in assay [4] (0.1 mg/kg p.o.) and in assay [4] (10.0 mg/kg p.o.) were 16% and 4%, respectively.

For the compound `CC[C@@]12C=C(C(=O)OCCOC(=O)c3ccccc3)n3c4c(c5ccccc53)CCN(CCC1)[C@@H]42` [Compound 1010960, (-)-trans apovincaminic acid 2-(benzoyloxy)ethyl ester(3β,16α)hydrochloride], in assay [1], the IC50 is 7.4 µM and < 10 µM; the “inhibition of NADPH-induced lipid peroxidation relative to silymarin (times as strongly)” value was “about 20 times”. Also, in assay [2], the IC50 is 5.7 µM and < 10 µM; the “antioxidant activity” value was “about twice as active as idebenone or DL-α-tocopherol”. For the same compound, the mortality at 2 mg/kg in assay [3] lay within 10 to 30%. Besides, in assay [4] (0.1 mg/kg p.o.), the “Inhibition of the diazepam-induced amnesia %” value turned out to be 0%. In assay [4] (10.0 mg/kg p.o.), the “Inhibition of the diazepam-induced amnesia %” value came to 0%.

Consider `CCC(=O)OCCOC(=O)C1=C[C@@]2(CC)CCCN3CCc4c(n1c1ccccc41)[C@@H]32` [Compound 1011038, (+)-trans apovincaminic acid 2-(propionyloxy)ethyl ester(3α,16β)hydrochloride], for which the IC50 is 8.4 µM and < 10 µM in assay [1]; 8.7 µM and < 10 µM in assay [2]. The “inhibition of NADPH-induced lipid peroxidation relative to silymarin (times as strongly)” value in assay [1] was “about 20 times”. Besides, the “antioxidant activity” value in assay [2] is “about twice as active as idebenone or DL-α-tocopherol”. Moreover, the mortality at 2 mg/kg in assay [3] was 60%. For the same compound, the figures for the “Inhibition of the diazepam-induced amnesia %” value in assay [4] (0.1 mg/kg p.o.) and in assay [4] (10.0 mg/kg p.o.) were 64% and 24%, respectively. Moreover, in assay [4] (diazepam-induced anterograde amnesia, 0.1 and 10 mg/kg p.o.), the “antiamnesic activity, in words” value is “particularly effective”.

In turn, `COC1=C(OC)C(=O)C(CCCCCCCCCCO)=C(C)C1=O` [Idebenone, 6-(10-hydroxydecyl)-2,3-dimethoxy-5-methyl-1,4-benzoquinone, reference compound] displayed an IC50 in assay [1] of 1.2 µM. The midpoint of inhibition in assay [2], the IC50, lay at 18.9 µM. Further, in assay [3], the mortality at 2 mg/kg stood at 40%; it took a dose of 4.5 mg/kg to reach the 50% effect level (ED50); the “antiischemic activity, in words” value is recorded as “less active in the same dose”.

On to `CC[C@]12C=C(C(=O)OCCOC(=O)c3ccc(Cl)cc3)n3c4c(c5ccccc53)CCN(CCC1)[C@H]42` [Compound 1011037, (+)-trans apovincaminic acid 2-(4-chloro-benzoyloxy)-ethyl ester(3α,16β)methanesulfonate], for which the IC50 was 3.2 µM in assay [1] and 11.4 µM in assay [2]. Moreover, the “antioxidant effect” value in assay [1] is reported as “comparable to that of idebenone”. Besides, in assay [3], the mortality at 2 mg/kg stood at 50%.

On to `CC[C@]12C=C(C(=O)OCCOC(=O)c3ccccc3)n3c4c(c5ccccc53)CCN(CCC1)[C@H]42` [Compound 1011036, (-)-trans apovincaminic acid 2-(benzoyloxy)ethyl ester(3α,16β)hydrochloride], for which, in assay [1], the IC50 is 7.7 µM and < 10 µM; the “inhibition of NADPH-induced lipid peroxidation relative to silymarin (times as strongly)” value is “about 20 times”. Further, in assay [2], the IC50 is 9.3 µM and < 10 µM; the “antioxidant activity” value is “about twice as active as idebenone or DL-α-tocopherol”. The same compound returned a mortality at 2 mg/kg in assay [3] of 50%. In assay [4] (0.1 mg/kg p.o.), the “Inhibition of the diazepam-induced amnesia %” value was determined as 23%. Further, the “Inhibition of the diazepam-induced amnesia %” value in assay [4] (10.0 mg/kg p.o.) is on record as 16%.

In the case of `CC[C@@]12C=C(C(=O)OCCOC(=O)c3ccc(Cl)cc3)n3c4c(c5ccccc53)CCN(CCC1)[C@@H]42` [Compound 1010961, (-)-trans apovincaminic acid 2-(4-chlorobenzoyloxy)ethyl ester(3β,16α)methanesulfonate], in assay [1], the IC50 was 5.9 µM and < 10 µM; the “antioxidant effect” value is given as “comparable to that of idebenone”. Also, in assay [2], the half-maximal inhibitory concentration (IC50) is 5.3 µM and < 10 µM; the “antioxidant activity” value is “about twice as active as idebenone or DL-α-tocopherol”. Further, in assay [3], the mortality at 2 mg/kg stood at 60%. Besides, the “Inhibition of the diazepam-induced amnesia %” value in assay [4] (0.1 mg/kg p.o.) was determined as 3%. The “Inhibition of the diazepam-induced amnesia %” value in assay [4] (10.0 mg/kg p.o.) was found to be 15%.

On to `CC[C@@]12C=C(C(=O)OCCO)n3c4c(c5ccccc53)CCN(CCC1)[C@@H]42` [Compound 1010885, (-)-trans apovincaminic acid 2-hydroxyethyl ester(3β,16α)], for which the IC50 was found to be 9.7 µM in assay [1] and 15.5 µM in assay [2]. The “inhibition of NADPH-induced lipid peroxidation relative to silymarin (times as strongly)” value in assay [1] is on record as “about 20 times”. The “antioxidant activity” value in assay [2] is “more strongly than idebenone”. For the same compound, in assay [3], the mortality at 2 mg/kg is 60%. For the same compound, the “Inhibition of the diazepam-induced amnesia %” value in assay [4] (0.1 mg/kg p.o.) was 74%; in assay [4] (10.0 mg/kg p.o.) it was 65%.
